Test results as given in US11400059B2, “Treatment of pain and/or pain related symptoms associated with dysmenorrhea” (ALYRA BIOTECH PTY LTD, priority 2017, dated 2022).

Key:
Format in all cases: cell-based
Human TLR8 = target: T1, Human TLR8 (Homo sapiens, UniProt Q9NR97); assay: Human TLR antagonist screening, NF-κB SEAP reporter in HEK293 cells; conditions: antagonist mode, test article 1 μM, +CL075 200 ng/ml, No Sample 13, Control− 1
T1 construct: expressed in transfected cells; host or cells: HEK293
T1 sequence (Q9NR97 27-1041): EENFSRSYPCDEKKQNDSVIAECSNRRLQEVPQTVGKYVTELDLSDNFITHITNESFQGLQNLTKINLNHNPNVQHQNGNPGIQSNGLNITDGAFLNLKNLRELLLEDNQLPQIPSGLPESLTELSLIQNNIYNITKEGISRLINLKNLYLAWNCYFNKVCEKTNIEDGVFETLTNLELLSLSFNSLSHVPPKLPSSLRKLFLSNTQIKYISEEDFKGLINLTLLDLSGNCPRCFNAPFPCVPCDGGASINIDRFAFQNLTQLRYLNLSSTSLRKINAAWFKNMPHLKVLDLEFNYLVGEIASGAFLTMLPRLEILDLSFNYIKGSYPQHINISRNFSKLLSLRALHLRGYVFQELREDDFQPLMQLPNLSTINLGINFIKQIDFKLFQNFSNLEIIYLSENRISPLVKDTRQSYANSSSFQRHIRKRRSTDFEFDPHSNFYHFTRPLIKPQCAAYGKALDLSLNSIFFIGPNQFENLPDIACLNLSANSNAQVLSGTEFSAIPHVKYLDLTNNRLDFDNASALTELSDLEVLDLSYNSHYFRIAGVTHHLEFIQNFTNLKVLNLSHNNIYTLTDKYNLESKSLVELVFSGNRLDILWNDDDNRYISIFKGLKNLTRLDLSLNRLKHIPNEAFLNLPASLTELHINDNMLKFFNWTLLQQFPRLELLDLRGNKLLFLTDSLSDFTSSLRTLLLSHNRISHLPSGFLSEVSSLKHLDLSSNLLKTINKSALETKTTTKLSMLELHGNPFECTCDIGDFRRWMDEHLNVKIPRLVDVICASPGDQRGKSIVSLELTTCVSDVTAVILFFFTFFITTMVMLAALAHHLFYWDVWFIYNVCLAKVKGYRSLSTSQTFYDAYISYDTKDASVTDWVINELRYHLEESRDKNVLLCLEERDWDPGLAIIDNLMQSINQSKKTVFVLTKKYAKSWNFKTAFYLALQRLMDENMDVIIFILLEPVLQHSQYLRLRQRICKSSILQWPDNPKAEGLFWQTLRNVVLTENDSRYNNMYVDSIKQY
Description: Toll-Like Receptor (TLR), NOD-Like Receptor (NLR) and C-Type Lectin Receptor (CLR) stimulation were tested by assessing NF-κB activation in HEK293 cells expressing a given TLR, NLR or CLR. The activity of the test articles was tested at one concentration and compared to control ligands. These steps were performed in triplicate. hTLR8: […] In a 96-well plate (200 μL total volume) containing the appropriate cells (50,000-75,000 cells/well), 20 μL of the test article or the positive control ligand was added to the wells. For the antagonist assay, the test article was incubated with the cells, at 37° C. with 5% CO2, for 30 minutes prior to the addition of the positive control ligand to the wells. The media added to the wells was designed for the detection of NF-κB induced SEAP expression. After a 16-24 hr incubation the optical density (OD) was read at 650 nm on a Molecular Devices SpectraMax 340PC absorbance detector. Fold induction (ratio of average induced value to average non-induced value) was determined for each TLR, NOD1, NOD2, Dectin-1a, Dectin-1b.

[1] = test system: HEK293/Null1 and HEK293/Null2; assay: Antagonist screening on TLR−/NLR− control cell lines stimulated with TNFa; conditions: stimulated with TNFa at 10 ng/mL
Description: Toll-Like Receptor (TLR), NOD-Like Receptor (NLR) and C-Type Lectin Receptor (CLR) stimulation were tested by assessing NF-κB activation in HEK293 cells expressing a given TLR, NLR or CLR. The activity of the test articles was tested at one concentration and compared to control ligands. These steps were performed in triplicate. In a 96-well plate (200 μL total volume) containing the appropriate cells (50,000-75,000 cells/well), 20 μL of the test article or the positive control ligand was added to the wells. For the antagonist assay, the test article was incubated with the cells, at 37° C. with 5% CO2, for 30 minutes prior to the addition of the positive control ligand to the wells. The media added to the wells was designed for the detection of NF-κB induced SEAP expression. After a 16-24 hr incubation the optical density (OD) was read at 650 nm on a Molecular Devices SpectraMax 340PC absorbance detector.

human Mincle = target: T2, human Mincle (Homo sapiens, UniProt Q9ULY5); assay: Human CLR antagonist screening, NF-κB SEAP reporter in HEK293 cells; conditions: antagonist mode, Ami 1 μM, +TDB 5 μg/mL, No Sample 6, Control− 1
T2 construct: expressed in transfected cells; host or cells: HEK293
Description: Toll-Like Receptor (TLR), NOD-Like Receptor (NLR) and C-Type Lectin Receptor (CLR) stimulation were tested by assessing NF-κB activation in HEK293 cells expressing a given TLR, NLR or CLR. The activity of the test articles was tested at one concentration and compared to control ligands. These steps were performed in triplicate.
hMincle: Trehalose-6,6-dibehenate (TDB) at 10 μg/mL Antagonist: 5 μg/mL.
In a 96-well plate (200 μL total volume) containing the appropriate cells (50,000-75,000 cells/well), 20 μL of the test article or the positive control ligand was added to the wells. For the antagonist assay, the test article was incubated with the cells, at 37° C. with 5% CO2, for 30 minutes prior to the addition of the positive control ligand to the wells. The media added to the wells was designed for the detection of NF-κB induced SEAP expression. After a 16-24 hr incubation the optical density (OD) was read at 650 nm on a Molecular Devices SpectraMax 340PC absorbance detector.

T2 sequence (Q9ULY5 whole entry): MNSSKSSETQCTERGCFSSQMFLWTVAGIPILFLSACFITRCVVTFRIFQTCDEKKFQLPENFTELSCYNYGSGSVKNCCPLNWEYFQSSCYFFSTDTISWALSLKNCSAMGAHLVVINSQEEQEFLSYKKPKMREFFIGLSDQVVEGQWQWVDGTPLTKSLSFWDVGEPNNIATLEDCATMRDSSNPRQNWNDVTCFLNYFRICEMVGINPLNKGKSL

| Compound | Fold Induction (Human TLR8) | Fold Induction (Human TLR8; listed as Nor) | effect on TLR−/NLR− control cell lines [1] | Fold Induction (Human TLR8; listed as Ami) | Fold Induction (human Mincle) | Fold Induction (human Mincle; listed as Ami) |
| --- | --- | --- | --- | --- | --- | --- |
| CNCCC=C1c2ccccc2CCc2ccccc21 [Nortriptyline] | slight inhibitory effect | 11 | slight inhibitory effect | – | – | – |
| CN(C)CCC=C1c2ccccc2CCc2ccccc21 [Amitriptyline] | slight inhibitory effect | – | slight inhibitory effect | 11 | slight inhibitory effect | 5 |
